# Assay results published in patent US20150164895A1, “DETERMINING SENSITIVITY OF CELLS TO B-RAF INHIBITOR TREATMENT BY DETECTING KRAS MUTATION AND RTK EXPRESSION LEVELS” (GENENTECH, INC., priority 2009, published 2015).
# Several values for one entry are separate records, joined by “and”; a condition that tells them apart may be missing. Equal entries are not always repeated.
# Columns and labels:
# lung tumor xenografts = test: Experiment H327: growth in lung tumor xenografts after dosing with B-RAF inhibitor; assay type: in vivo, mice; settings: for Absolute body weight / Relative body weight / Survival time: individual animal; for Relative tumor volume / Absolute tumor volume: (a*b*b)/2: individual tumor
# Source text: FIGS. 10-18 depict growth in lung tumor xenografts after dosing with GDC-0879.
# The data are shown below, and in FIGS. 10-14 for Experiment H331 and FIGS. 15-18 for Experiment H327.
# [1] = test system: Venus-C-RAF / CFP-K-RAS in HEK293T cells; test: C-RAF plasma membrane translocation, live cell confocal imaging; assay type: cell-based; set-up: dose or concentration left out as unconfirmed
# Source text: Aliquots of the membrane and cytosolic fractions were immunoblotted with the indicated antibodies. (B) HEK293T cells were transiently transfected with Venus-C-RAF (green), CFP-K-RAS (red) and mCherry-H2B (blue).
# [2] = test system: pERK in BRAF V600E cells expressing EGFR; test: pERK MSD assay, basal and EGF-stimulated; assay type: cell-based; settings: serum starved, -EGF or +EGF
# Experimental: (A) Table of genotype and EGFR levels among lines tested. (B) Measurement of basal and stimulated pERK levels: cells were treated with […] compound in serum free media for 1 hour. For stimulation 20 ng/ml EGF was added for 5 min before cells were lysed. Lysates were transferred to an MSD plate where phospho- and total ERK levels were measured. (C) pERK IC50 data are plotted for the two Raf inhibitors (CHR-265, 1-methyl-5-[[2-[5-(trifluoromethyl)-1H-imidazol-2-yl]-4-pyridinyl]oxy]-N-[4-(trifluoromethyl)phenyl]-1H-Benzimidazol-2-amine and GDC-0879) under basal and EGF-stimulated conditions.
# FIG. 29 summarizes certain RAF inhibitor (GDC-0879, PLX-4720 and “Raf inh a” which is 2,6-difluoro-N-(3-methoxy-1H-pyrazolo[3,4-b]pyridin-5-yl)-3-(propylsulfonamido)benzamide) potencies for blocking cellular pERK induction in response to EGF stimulation.
# B-Raf^V600E = B-Raf^V600E (Homo sapiens, UniProt P15056, V600E); settings: physiological [ATP]
# Sequence of B-Raf^V600E (P15056 whole entry V600E): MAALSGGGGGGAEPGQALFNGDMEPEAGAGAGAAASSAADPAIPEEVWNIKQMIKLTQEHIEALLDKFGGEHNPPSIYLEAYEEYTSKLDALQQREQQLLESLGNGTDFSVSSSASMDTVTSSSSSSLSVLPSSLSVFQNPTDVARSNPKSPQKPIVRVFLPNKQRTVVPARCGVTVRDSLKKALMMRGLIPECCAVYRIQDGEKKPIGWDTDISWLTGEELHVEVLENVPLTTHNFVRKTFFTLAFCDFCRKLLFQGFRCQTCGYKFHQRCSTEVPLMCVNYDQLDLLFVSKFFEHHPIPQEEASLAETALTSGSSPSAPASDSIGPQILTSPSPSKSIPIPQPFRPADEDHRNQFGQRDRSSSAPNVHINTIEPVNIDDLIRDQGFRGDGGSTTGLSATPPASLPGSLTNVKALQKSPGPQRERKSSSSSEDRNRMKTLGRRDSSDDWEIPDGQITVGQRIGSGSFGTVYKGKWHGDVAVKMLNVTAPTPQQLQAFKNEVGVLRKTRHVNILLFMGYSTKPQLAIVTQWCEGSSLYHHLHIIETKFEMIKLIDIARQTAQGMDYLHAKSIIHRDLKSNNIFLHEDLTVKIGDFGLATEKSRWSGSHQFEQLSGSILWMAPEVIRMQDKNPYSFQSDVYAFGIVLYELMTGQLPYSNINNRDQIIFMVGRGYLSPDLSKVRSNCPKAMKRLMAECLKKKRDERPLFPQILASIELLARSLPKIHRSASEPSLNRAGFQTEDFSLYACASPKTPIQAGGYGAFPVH
# [3] = test system: patient-derived melanoma and non-small cell lung cancer tumor models; test: Primary human tumor xenograft models, time to tumor doubling; assay type: in vivo, mice; settings: 100 mg/kg daily
# Experimental: FIG. 8A depicts the duration and extent of BRAF pathway inhibition determines B-Raf inhibitor, GDC-0879 efficacy in primary human tumor xenograft models. A Kaplan-Meier plot showing time to tumor doubling for patient-derived melanoma and non-small cell lung cancer tumor models treated daily with 100 mg/kg GDC-0879 or vehicle. Genotypes for BRAF, N-ras and K-ras are indicated.
# The Ras GTPase family controls numerous downstream signaling cascades in response to signals that regulate cellular processes including proliferation and survival. While Ras is one of the most prevalent targets for gain-of-function mutations in human tumors, questions remain regarding how the Ras effector pathway functions in mutant K-ras-driven tumorigenesis. Since an important function of K-ras involves B-Raf activation within the canonical MAPK signaling pathway, we initiated a study to determine B-Raf's role in the context of mutant K-ras-driven tumor promotion and maintenance. […] See, FIG. 8A, showing time to tumor doubling.
# [4] = test system: ERK1/2 phosphorylation in BRAF^V600E primary human xenograft tumors; test: Pharmacodynamic ERK1/2 phosphorylation immunoblot in primary human xenograft tumors; assay type: in vivo, mice; settings: 100 mg/kg, 1 or 8 h following the last dose (days 21-24)
# Experimental: In time course pharmacodynamic studies, mice were treated with 100 mg/kg GDC-0879 and scarified at 1 or 8 h following the last dose (days 21-24). Immunoblots of phosphorylated and total ERK1/2 are shown. […] Total ERK1/2 expression was examined in all samples as a loading control.
# [5] = test system: phospho-MEK in B-RAF V600E mutant cell lines; test: Phospho-MEK MSD assay, basal and EGF-stimulated; assay type: cell-based; settings: basal and EGF-stimulated (20 ng/ml EGF); compared with PLX4720
# Experimental: (A) Cells were treated with […] compound in serum free media for 1 hour. For stimulation 20 ng/ml EGF was added for 5 min before cells were lysed. Lysates were transferred to an MSD plate where phospho- and total MEK levels were measured. […] Cells were dosed with indicated inhibitors, either alone or in combination in the presence of 20 ng/ml EGF in the media.
# [6] = H327-2, LXFA 1041/9N4, 100 mg/kg/day po Days 0-20, study day 17, group median n 20
# [7] = H327-2, LXFA 1041/9N4, 100 mg/kg/day po Days 0-20, study day 17, listed as G-026887
# [8] = H327-2, LXFA 1041/9N4, 100 mg/kg/day po Days 0-20, study day 20, group median n 10
# [9] = H327-2, LXFA 1041/9N4, 100 mg/kg/day po Days 0-20, study day 20, group median n 20
# [10] = H327-2, LXFA 1041/9N4, 100 mg/kg/day po Days 0-20, study day 20, listed as G-026887
# [11] = H327-5, LXFA 1041/9N4, 100 mg/kg/day po Day 0, study day 0, group median n 6
# [12] = H327-5, LXFA 1041/9N4, 100 mg/kg/day po Day 0, study day 0, listed as G-026887
# [13] = H327-6, LXFA 1041/9N4, 100 mg/kg/day po Day 0, study day 0, group median n 3
# [14] = H327-6, LXFA 1041/9N4, 100 mg/kg/day po Day 0, study day 0, listed as G-026887
structure (smiles),measurement,setting,value
"OCCn1cc(-c2ccc3c(c2)CC/C3=N\O)c(-c2ccncc2)n1 [GDC-0879, 2-{4-[(1E)-1-(hydroxyimino)-2,3-dihydro-1H-inden-5-yl]-3-(pyridine-4-yl)-1H-pyrazol-1-yl}ethan-1-ol]","Absolute tumor volume: (a*b*b)/2, Median",lung tumor xenografts; [6],789.5 mm3
same,"Relative tumor volume, Median",lung tumor xenografts; [6],900.4%
same,Absolute body weight,lung tumor xenografts; [7],24.8 g and 30.3 g and 25.1 g and 25.0 g and 24.7 g and 26.2 g and 31.9 g and 31.1 g and 26.4 g and 22.7 g
same,Relative body weight,lung tumor xenografts; [7],97.6% and 105.9% and 102.4% and 102.0% and 102.9% and 104.4% and 107.0% and 98.7% and 105.6% and 96.2%
same,Relative tumor volume,lung tumor xenografts; [7],1372.2% and 1073.6% and 869.4% and 770.2% and 1242.1% and 1093.2% and 1915.9% and 1727.1% and 932.7% and 931.4% and 937.2% and 831.6% and 856.0% and 746.4%
same,"Absolute body weight, Median",lung tumor xenografts; [8],26.9 g
same,"Relative body weight, Median",lung tumor xenografts; [8],108.0%
same,"Absolute tumor volume: (a*b*b)/2, Median",lung tumor xenografts; [9],928.6 mm3
same,"Relative tumor volume, Median",lung tumor xenografts; [9],1023.2%
same,Absolute body weight,lung tumor xenografts; [10],25.4 g and 31.4 g and 25.8 g and 26.3 g and 26.1 g and 28.3 g and 33.2 g and 32.4 g and 27.4 g and 23.1 g
same,Relative body weight,lung tumor xenografts; [10],100.0% and 109.8% and 105.3% and 107.3% and 108.8% and 112.7% and 111.4% and 102.9% and 109.6% and 97.9%
same,Relative tumor volume,lung tumor xenografts; [10],1795.5% and 1109.8% and 1056.9% and 872.2% and 1346.4% and 1155.4% and 2275.4% and 1830.4% and 1070.4% and 1264.0% and 971.2% and 860.0% and 980.4% and 989.5%
same,Absolute tumor volume: (a*b*b)/2,"lung tumor xenografts; H327-2, LXFA 1041/9N4 Lung, adeno, 100 mg/kg/day po Days 0-20, study day 0, listed as G-026887, 100 mg/kg/day",47.6 mm3 and 100.9 mm3 and 90.8 mm3 (2×) and 111.6 mm3 and 68.8 mm3 and 57.6 mm3 and 62.5 mm3 and 84.7 mm3 and 50.6 mm3 and 210.8 mm3 and 117.2 mm3 and 139.4 mm3
same,Absolute tumor volume: (a*b*b)/2,"lung tumor xenografts; H327-2, LXFA 1041/9N4 Lung, adeno, 100 mg/kg/day po Days 0-20, study day 3, listed as G-026887, 100 mg/kg/day",92.3 mm3 and 210.8 mm3 and 140.4 mm3 and 209.5 mm3 and 139.3 mm3 and 90.8 mm3 and 68.8 mm3 and 145.4 mm3 and 117.0 mm3 and 98.3 mm3 and 292.8 mm3 and 201.6 mm3 and 249.4 mm3
same,Absolute tumor volume: (a*b*b)/2,"lung tumor xenografts; H327-2, LXFA 1041/9N4 Lung, adeno, 100 mg/kg/day po Days 0-20, study day 7, listed as G-026887, 100 mg/kg/day",215.1 mm3 and 332.8 mm3 and 272.8 mm3 and 291.2 mm3 and 258.8 mm3 and 147.9 mm3 and 212.5 mm3 and 294.4 mm3 and 197.0 mm3 and 126.0 mm3 and 470.6 mm3 and 344.4 mm3 and 392.9 mm3
same,Absolute tumor volume: (a*b*b)/2,"lung tumor xenografts; H327-2, LXFA 1041/9N4 Lung, adeno, 100 mg/kg/day po Days 0-20, study day 10, listed as G-026887, 100 mg/kg/day",279.3 mm3 and 491.9 mm3 and 461.7 mm3 and 420.1 mm3 and 284.6 mm3 and 237.2 mm3 and 326.4 mm3 and 510.3 mm3 and 274.4 mm3 and 173.2 mm3 and 701.8 mm3 and 451.3 mm3 and 546.2 mm3
same,Absolute tumor volume: (a*b*b)/2,"lung tumor xenografts; H327-2, LXFA 1041/9N4 Lung, adeno, 100 mg/kg/day po Days 0-20, study day 14, listed as G-026887, 100 mg/kg/day",458.8 mm3 and 819.3 mm3 and 538.6 mm3 and 575.5 mm3 and 510.9 mm3 and 401.6 mm3 and 672.9 mm3 and 1044.8 mm3 and 426.3 mm3 and 312.1 mm3 and 1321.4 mm3 and 613.8 mm3 and 1022.5 mm3
same,Absolute tumor volume: (a*b*b)/2,"lung tumor xenografts; H327-2, LXFA 1041/9N4 Lung, adeno, 100 mg/kg/day po Days 0-20, study day 17, listed as G-026887, 100 mg/kg/day",653.0 mm3 and 1083.4 mm3 and 789.0 mm3 and 859.6 mm3 and 853.9 mm3 and 629.7 mm3 and 1197.5 mm3 and 1567.4 mm3 and 790.0 mm3 and 471.5 mm3 and 1975.9 mm3 and 974.7 mm3 and 1193.5 mm3
same,Absolute tumor volume: (a*b*b)/2,"lung tumor xenografts; H327-2, LXFA 1041/9N4 Lung, adeno, 100 mg/kg/day po Days 0-20, study day 20, listed as G-026887, 100 mg/kg/day",854.4 mm3 and 1120.0 mm3 and 959.2 mm3 and 973.4 mm3 and 925.7 mm3 and 665.5 mm3 and 1422.1 mm3 and 1661.1 mm3 and 906.6 mm3 and 639.9 mm3 and 2047.5 mm3 and 1008.0 mm3 and 1366.9 mm3
same,Survival time,"lung tumor xenografts; H327-5, LXFA 1041/9N4, 100 mg/kg/day po Day 0",>0 days
same,"Absolute body weight, Median",lung tumor xenografts; [11],25.6 g
same,"Absolute tumor volume: (a*b*b)/2, Median",lung tumor xenografts; [11],248.1 mm3
same,"Relative body weight, Median",lung tumor xenografts; [11],100.0%
same,"Relative tumor volume, Median",lung tumor xenografts; [11],100.0%
same,Relative body weight,"lung tumor xenografts; H327-5, LXFA 1041/9N4, 100 mg/kg/day po Day 0, study day 0",100.0%
same,Absolute body weight,lung tumor xenografts; [12],26.3 g and 23.5 g and 24.9 g and 31.1 g and 20.8 g and 27.4 g
same,Absolute tumor volume: (a*b*b)/2,lung tumor xenografts; [12],256.0 mm3 and 219.0 mm3 and 423.2 mm3 and 441.1 mm3 and 166.5 mm3 and 240.1 mm3
same,Survival time,"lung tumor xenografts; H327-6, LXFA 1041/9N4, 100 mg/kg/day po Day 0",>0 days
same,"Absolute body weight, Median",lung tumor xenografts; [13],27.2 g
same,"Absolute tumor volume: (a*b*b)/2, Median",lung tumor xenografts; [13],267.7 mm3
same,Absolute body weight,lung tumor xenografts; [14],27.9 g and 27.2 g and 25.2 g
same,Absolute tumor volume: (a*b*b)/2,lung tumor xenografts; [14],409.1 mm3 and 250.5 mm3 and 267.7 mm3
same,Venus-tagged C-RAF membrane translocation,[1],co-localizes with CFP-KRAS on the plasma membrane
same,blocking wildtype RAF signaling / selectivity (pERK induction in response to EGF),[2],can more efficiently block wildtype RAF signaling
same,potency in biochemical enzyme assay,B-Raf^V600E,maintains effective potency
same,time to tumor doubling / tumor growth,[3]; K-ras-mutant non-small cell lung tumors such as LXFA 1041 and LXFA 983,significantly accelerated growth
same,time to tumor doubling / tumor progression,"[3]; MEXF 989, MEXF 276, and MEXF 355 tumors",statistically significant (P<0.05) delay in tumor progression
same,ERK1/2 phosphorylation in tumors,[4],down-regulated ERK1/2 phosphorylation
same,knocking down phospho-MEK levels,[5],more effective in knocking down phospho-MEK levels
